Experimental data published in article PMC6912857 (Journal of Medicinal Chemistry, 2019).
“Also recorded” adds a separate entry of the source. Values belong to the molecule of their own block, whether it stands above or below them.

Experiments:
[1] = target: hH3R (Homo sapiens, UniProt Q9Y5N1); assay: CRE-luciferase reporter gene assay, hH3R expressed on HEK293T cells; format: cell-based; details: intrinsic activity compared to histamine
[2] = Nephelometry / aqueous solubility; format: physicochemical; details: up to 100 mM concentration
[3] = target: H1R (Homo sapiens, UniProt P35367); assay: NFAT-luciferase reporter gene assay, H1R; format: cell-based; details: up to 10 μM
[4] = target: T1, mH4R (Mus musculus, UniProt Q91ZY2); assay: CRE-luciferase reporter gene assay, mH4R expressed on HEK293T cells; format: cell-based
T1 sequence (Q91ZY2 1-391): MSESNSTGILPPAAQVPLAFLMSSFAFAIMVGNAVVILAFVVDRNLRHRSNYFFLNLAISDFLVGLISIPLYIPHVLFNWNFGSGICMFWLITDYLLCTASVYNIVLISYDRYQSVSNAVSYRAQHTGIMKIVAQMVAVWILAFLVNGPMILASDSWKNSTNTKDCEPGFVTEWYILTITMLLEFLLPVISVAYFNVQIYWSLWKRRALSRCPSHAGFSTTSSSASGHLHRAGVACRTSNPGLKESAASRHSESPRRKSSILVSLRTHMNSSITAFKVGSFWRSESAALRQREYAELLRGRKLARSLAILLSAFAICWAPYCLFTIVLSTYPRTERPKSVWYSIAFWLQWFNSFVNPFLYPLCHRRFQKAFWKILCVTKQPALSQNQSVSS

[5] = system: Male C57Bl6 mice; assay: Social recognition test in mice
[6] = Metabolic stability in mouse liver microsomes
[7] = target: H2R (Homo sapiens, UniProt P25021); assay: CRE-luciferase reporter gene assay, H2R; format: cell-based; details: up to 10 μM
[8] = system: rats; details: cited from earlier work
[9] = cited from earlier work

Chain of H2R (P25021 whole entry, species assumed): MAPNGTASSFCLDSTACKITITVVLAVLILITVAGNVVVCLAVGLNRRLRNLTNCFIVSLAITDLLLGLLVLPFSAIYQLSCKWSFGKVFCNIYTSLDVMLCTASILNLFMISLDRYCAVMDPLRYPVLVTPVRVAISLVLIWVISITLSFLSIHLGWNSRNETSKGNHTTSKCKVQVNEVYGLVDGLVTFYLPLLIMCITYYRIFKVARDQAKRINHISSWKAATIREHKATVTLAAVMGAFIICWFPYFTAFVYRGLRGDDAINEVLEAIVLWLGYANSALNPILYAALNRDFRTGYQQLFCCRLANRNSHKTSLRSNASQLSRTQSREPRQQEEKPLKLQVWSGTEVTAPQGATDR
Chain of hH3R (Q9Y5N1 whole entry): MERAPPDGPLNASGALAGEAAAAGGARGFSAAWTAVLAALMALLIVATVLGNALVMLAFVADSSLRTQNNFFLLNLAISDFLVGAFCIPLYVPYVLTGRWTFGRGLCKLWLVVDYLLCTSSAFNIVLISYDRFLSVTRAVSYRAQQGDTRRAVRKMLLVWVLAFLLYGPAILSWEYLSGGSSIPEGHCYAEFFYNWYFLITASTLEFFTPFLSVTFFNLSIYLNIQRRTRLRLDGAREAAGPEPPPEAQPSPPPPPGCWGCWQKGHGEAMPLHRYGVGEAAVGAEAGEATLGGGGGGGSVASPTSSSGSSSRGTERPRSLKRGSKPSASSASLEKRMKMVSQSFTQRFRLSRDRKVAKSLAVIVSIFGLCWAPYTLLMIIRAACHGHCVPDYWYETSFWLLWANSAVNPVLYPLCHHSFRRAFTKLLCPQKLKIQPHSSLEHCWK
Chain of H1R (P35367 whole entry, species assumed): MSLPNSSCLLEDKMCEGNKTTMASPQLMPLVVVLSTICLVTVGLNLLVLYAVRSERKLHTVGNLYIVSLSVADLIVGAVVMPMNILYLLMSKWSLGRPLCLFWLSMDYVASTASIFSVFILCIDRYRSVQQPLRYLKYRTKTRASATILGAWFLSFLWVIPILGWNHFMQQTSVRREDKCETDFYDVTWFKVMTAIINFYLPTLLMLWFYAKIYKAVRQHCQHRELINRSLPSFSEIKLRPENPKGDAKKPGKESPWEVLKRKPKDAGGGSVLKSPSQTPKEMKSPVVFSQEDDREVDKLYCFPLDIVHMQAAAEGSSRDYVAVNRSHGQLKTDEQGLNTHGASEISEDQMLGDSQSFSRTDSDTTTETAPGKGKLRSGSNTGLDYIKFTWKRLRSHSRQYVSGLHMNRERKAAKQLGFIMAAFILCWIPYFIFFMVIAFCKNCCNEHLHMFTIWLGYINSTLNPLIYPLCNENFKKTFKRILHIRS

- α (intrinsic activity) [1]: ~1.0
SMILES: CCNC1CN(c2cc(CC)nc(N)n2)C1 [12c, 4-Ethyl-6-(3-(ethylamino)azetidin-1-yl)pyrimidin-2-amine]

- microprecipitation (nephelometry) [2]: no microprecipitation
- activation of H1R [3]: does not activate
- selectivity in potency mH3R vs mH4R [4]: > 10 fold
- slower elimination compared with the reference control verapamil ([6]; mouse liver microsomes): more than 2 times
- half-life at 50 μM ([6]; mouse, microsomes, pH 7.4): 2.18 h
- activation of H2R [7]: does not activate
SMILES: CCCNC1CN(c2ccnc(N)n2)C1.O.O=C(O)/C=C/C(=O)O [14d, 4-(3-(Propylamino)azetidin-1-yl)pyrimidin-2-amine Fumarate Hydrate]
- CNS / brain penetration ([5]; indicated by effects in the in vivo social memory test, 5 mg/kg i.p., 5 mg/kg): clearly penetrating the CNS; also recorded: appreciable brain penetration
- discrimination index (DI) ([5]; mice, 5 mg/kg i.p.): negative
- social recognition memory (discrimination of novel vs familiar mouse) ([5]; mice, 5 mg/kg i.p. 30 min before the training session, 5 mg/kg): amnesic effects; also recorded: did not discriminate between the novel and the familiar mouse; also recorded: impairs social recognition
- exploration time of the cage during test ([5]; mice, 5 mg/kg i.p., during test): 148.3 ± 69.4 s
- exploration time of the cage during training ([5]; mice, 5 mg/kg i.p., during training): 136.2 ± 44.1 s
- sociability ([5]; mice, 5 mg/kg i.p., training session): did not affect

SMILES: N=C(N)SCCc1cnc[nH]1 [Imetit, imetit]
- effect on memory in the object recognition and passive avoidance tests [8]: memory impairments

SMILES: c1ncc(CC2CCNCC2)[nH]1 [immepip]
- effect on memory in the social recognition test [9]: cause amnesia

SMILES: S=C(NC1CCCCC1)N1CCC(c2cnc[nH]2)CC1 [thioperamide]
- effect on memory in the social recognition test [9]: improve short-term memory
